Data published in ChEMBL document CHEMBL5303304, “EUbOPEN Chemogenomics Library - IncuCyte” (2023).

What was measured:
Assay type in all cases: toxicity, cell-based
Fibroblast = assay: Incucyte cell viability with human fibroblast; conditions: 10 µM, compound concentration 10 uM
U2OS = assay: Incucyte cell viability with U2OS; conditions: human, 10 µM, compound concentration 10 uM
HEK-293T = assay: Incucyte cell viability with HEK293T; conditions: human, 10 µM, compound concentration 10 uM
Note: unitless GR value; below 1 slowed growth and below 0 cell loss.

## CC1(C)CC(CN2CCC(F)(CNC(=O)c3cc(Cl)cc(Cl)c3)CC2)CCO1 (stereo not drawn)
Fibroblast; 6 h, replicate number 1
  Growth Rate: -1
Fibroblast; 6 h, replicate number 2
  Growth Rate: 0.34
Fibroblast; 24 h, replicate number 2
  Growth Rate: 0.97
U2OS; 0 h, replicate number 1
  Growth Rate: -0.43
U2OS; 6 h, replicate number 1
  Growth Rate: 0.71
U2OS; 6 h, replicate number 2
  Growth Rate: 0.8
U2OS; 12 h, replicate number 1
  Growth Rate: 0.85
HEK-293T; 6 h, replicate number 1
  Growth Rate: 0.4

## CC1=NC(C=C2C(=O)Nc3ccc(F)cc32)=C(C)C1C(=O)NCC(O)CN1CCOCC1 (stereo not drawn)
Fibroblast; 0 h, replicate number 1
  Growth Rate: 0.4
Fibroblast; 6 h, replicate number 1
  Growth Rate: -0.99
U2OS; 0 h, replicate number 2
  Growth Rate: -0.99
HEK-293T; 0 h, replicate number 1
  Growth Rate: 0.76
HEK-293T; 0 h, replicate number 2
  Growth Rate: -0.67
HEK-293T; 24 h, replicate number 2
  Growth Rate: 0.99

## CN1CCN(c2ccc(C(=O)Nc3n[nH]c4ccc(Cc5cc(F)cc(F)c5)cc34)c(NC3CCOCC3)c2)CC1 [ENTRECTINIB]
Fibroblast; 0 h, replicate number 1
  Growth Rate: -0.42
Fibroblast; 6 h, replicate number 2
  Growth Rate: -1
Fibroblast; 12 h, replicate number 2
  Growth Rate: -0.97
Fibroblast; 18 h, replicate number 1
  Growth Rate: -0.92
Fibroblast; 18 h, replicate number 2
  Growth Rate: -0.89
Fibroblast; 24 h, replicate number 1
  Growth Rate: -0.82
Fibroblast; 24 h, replicate number 2
  Growth Rate: -0.77
U2OS; 0 h, replicate number 2
  Growth Rate: -1
U2OS; 6 h, replicate number 1
  Growth Rate: -0.92
U2OS; 6 h, replicate number 2
  Growth Rate: -0.57
U2OS; 12 h, replicate number 1
  Growth Rate: -0.62
U2OS; 12 h, replicate number 2
  Growth Rate: -0.45
U2OS; 18 h, replicate number 1
  Growth Rate: -0.64
U2OS; 18 h, replicate number 2
  Growth Rate: -0.56
U2OS; 24 h, replicate number 1
  Growth Rate: -0.66
U2OS; 24 h, replicate number 2
  Growth Rate: -0.6
HEK-293T; 6 h, replicate number 1
  Growth Rate: -0.98
HEK-293T; 6 h, replicate number 2
  Growth Rate: -0.99
HEK-293T; 12 h, replicate number 1
  Growth Rate: -0.89
HEK-293T; 12 h, replicate number 2
  Growth Rate: -0.8
HEK-293T; 18 h, replicate number 1
  Growth Rate: -0.67
HEK-293T; 18 h, replicate number 2
  Growth Rate: -0.58
HEK-293T; 24 h, replicate number 1
  Growth Rate: -0.54
HEK-293T; 24 h, replicate number 2
  Growth Rate: -0.42

## CC(C)(C)OC(=O)CN1C(=O)c2c(OCC(=O)O)cccc2Oc2ccc(C(F)(F)F)cc21
Fibroblast; 6 h, replicate number 1
  Growth Rate: 0.95
Fibroblast; 6 h, replicate number 2
  Growth Rate: -0.59
Fibroblast; 12 h, replicate number 2
  Growth Rate: 0.43
Fibroblast; 18 h, replicate number 2
  Growth Rate: 0.87
U2OS; 0 h, replicate number 1
  Growth Rate: 0.59
U2OS; 6 h, replicate number 1
  Growth Rate: 0.75
U2OS; 12 h, replicate number 1
  Growth Rate: 0.85
U2OS; 18 h, replicate number 1
  Growth Rate: 0.83
U2OS; 24 h, replicate number 1
  Growth Rate: 0.89
HEK-293T; 0 h, replicate number 1
  Growth Rate: 0.31
HEK-293T; 0 h, replicate number 2
  Growth Rate: -0.65
HEK-293T; 6 h, replicate number 1
  Growth Rate: 0.69
HEK-293T; 12 h, replicate number 1
  Growth Rate: 0.61
HEK-293T; 18 h, replicate number 1
  Growth Rate: 0.76
HEK-293T; 24 h, replicate number 1
  Growth Rate: 0.75

## C/C=C1\C(=O)CC2C3CCC4=CC(=O)CC[C@]4(C)C3CC[C@]12C (stereo partly drawn)
Fibroblast; 6 h, replicate number 1
  Growth Rate: -0.19
Fibroblast; 6 h, replicate number 2
  Growth Rate: 0.33
Fibroblast; 12 h, replicate number 1
  Growth Rate: 0.83
Fibroblast; 12 h, replicate number 2
  Growth Rate: 0.88
Fibroblast; 18 h, replicate number 1
  Growth Rate: 0.64
Fibroblast; 18 h, replicate number 2
  Growth Rate: 0.96
Fibroblast; 24 h, replicate number 1
  Growth Rate: 0.81
Fibroblast; 24 h, replicate number 2
  Growth Rate: 0.9
U2OS; 0 h, replicate number 1
  Growth Rate: 0.15
U2OS; 6 h, replicate number 1
  Growth Rate: 0.52
U2OS; 12 h, replicate number 1
  Growth Rate: 0.73
U2OS; 18 h, replicate number 1
  Growth Rate: 0.92
HEK-293T; 6 h, replicate number 1
  Growth Rate: 0.43
HEK-293T; 6 h, replicate number 2
  Growth Rate: 0.44
HEK-293T; 12 h, replicate number 1
  Growth Rate: 0.69
HEK-293T; 12 h, replicate number 2
  Growth Rate: 0.92
HEK-293T; 18 h, replicate number 1
  Growth Rate: 0.83
HEK-293T; 24 h, replicate number 1
  Growth Rate: 0.84

## CN(C(=O)CCOCCOCCOCCOCCNc1cccc2c1C(=O)N(C1CCC(=O)NC1=O)C2=O)[C@H]1CC[C@@]2(C)[C@@H](CC[C@@H]3[C@@H]2CC[C@]2(C)[C@@H](c4ccc5ccncc5c4)CC[C@@H]32)C1 (stereo partly drawn)
Fibroblast; 0 h, replicate number 1
  Growth Rate: -1
Fibroblast; 18 h, replicate number 2
  Growth Rate: 0.88
Fibroblast; 24 h, replicate number 2
  Growth Rate: 0.91
U2OS; 6 h, replicate number 1
  Growth Rate: 0.52
U2OS; 12 h, replicate number 1
  Growth Rate: 0.79
U2OS; 12 h, replicate number 2
  Growth Rate: -0.46
U2OS; 18 h, replicate number 1
  Growth Rate: 0.82
U2OS; 24 h, replicate number 1
  Growth Rate: 0.92
HEK-293T; 0 h, replicate number 1
  Growth Rate: 0.06
HEK-293T; 0 h, replicate number 2
  Growth Rate: -0.85
HEK-293T; 6 h, replicate number 1
  Growth Rate: 0.57
HEK-293T; 6 h, replicate number 2
  Growth Rate: 1
HEK-293T; 12 h, replicate number 1
  Growth Rate: 0.77
HEK-293T; 12 h, replicate number 2
  Growth Rate: 0.73
HEK-293T; 18 h, replicate number 1
  Growth Rate: 0.76
HEK-293T; 18 h, replicate number 2
  Growth Rate: 0.79
HEK-293T; 24 h, replicate number 1
  Growth Rate: 0.88
HEK-293T; 24 h, replicate number 2
  Growth Rate: 0.76

## COc1cc(-c2cc3ncccc3c(OC[C@H]3CNC(=O)C3)n2)cc(OC)c1OC1CCOCC1.O=C(O)C(F)(F)F
Fibroblast; 0 h, replicate number 1
  Growth Rate: 0.4
Fibroblast; 6 h, replicate number 1
  Growth Rate: 0.72
Fibroblast; 6 h, replicate number 2
  Growth Rate: 0.67
Fibroblast; 12 h, replicate number 2
  Growth Rate: 0.78
Fibroblast; 18 h, replicate number 1
  Growth Rate: 1
Fibroblast; 18 h, replicate number 2
  Growth Rate: 0.92
Fibroblast; 24 h, replicate number 2
  Growth Rate: 0.94
U2OS; 0 h, replicate number 1
  Growth Rate: -0.63
U2OS; 6 h, replicate number 2
  Growth Rate: 0.88
U2OS; 12 h, replicate number 1
  Growth Rate: 0.72
U2OS; 12 h, replicate number 2
  Growth Rate: 0.93
U2OS; 18 h, replicate number 1
  Growth Rate: 0.76
U2OS; 18 h, replicate number 2
  Growth Rate: 0.85
U2OS; 24 h, replicate number 1
  Growth Rate: 0.68
U2OS; 24 h, replicate number 2
  Growth Rate: 0.75
HEK-293T; 0 h, replicate number 2
  Growth Rate: 0.5
HEK-293T; 6 h, replicate number 1
  Growth Rate: 0.2
HEK-293T; 6 h, replicate number 2
  Growth Rate: -0.14
HEK-293T; 12 h, replicate number 1
  Growth Rate: 0.17
HEK-293T; 12 h, replicate number 2
  Growth Rate: 0.16
HEK-293T; 18 h, replicate number 1
  Growth Rate: 0.25
HEK-293T; 18 h, replicate number 2
  Growth Rate: 0.34
HEK-293T; 24 h, replicate number 1
  Growth Rate: 0.33
HEK-293T; 24 h, replicate number 2
  Growth Rate: 0.49
